Several values for one entry are separate records, joined by “and”; a condition that tells them apart may be missing. Equal values may be shown once. Toxic doses and inconclusive results are not listed.
System: BDF1 mice, P388 leukemia ip, median survival T/C
Test: NCI In Vivo Anticancer Drug Screen. Data for tumor model P388 Leukemia (intraperitoneal) in B6D2F1 (BDF1) mice
Conditions: endpoint: median survival time, higher = longer survival
In short: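 In tumour-bearing mice, survival after compound treatment is set against the vehicle group and given as a quotient.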

[1] = dose: 6.25 mg/kg/injection, schedule: Q04DX003 (ip), vehicle: saline
[2] = dose: 25.0 mg/kg/injection, schedule: Q01DX009 (ip), vehicle: Klucel (hydroxypropylcellulose) (HPC)
[3] = dose: 25.0 mg/kg/injection, schedule: Q04DX003 (ip), vehicle: saline
[4] = dose: 50.0 mg/kg/injection, schedule: Q01DX009 (ip), vehicle: saline with Tween-80
[5] = dose: 100.0 mg/kg/injection, schedule: Q01DX009 (ip), vehicle: saline with Tween-80
[6] = dose: 200.0 mg/kg/injection, schedule: Q01DX009 (ip), vehicle: saline with Tween-80
[7] = dose: 100.0 mg/kg/injection, schedule: Q04DX003 (ip), vehicle: saline
[8] = dose: 200.0 mg/kg/injection, schedule: Q04DX003 (ip), vehicle: saline
[9] = dose: 400.0 mg/kg/injection, schedule: Q04DX003 (ip), vehicle: saline
[10] = dose: 100.0 mg/kg/injection, schedule: Q01DX009 (ip), vehicle: Klucel (hydroxypropylcellulose) (HPC)
[11] = dose: 200.0 mg/kg/injection, schedule: Q01DX009 (ip), vehicle: Klucel (hydroxypropylcellulose) (HPC)
[12] = dose: 100.0 mg/kg/injection, schedule: Q04DX003 (ip), vehicle: Klucel (hydroxypropylcellulose) (HPC)

With C1CNCC[N-]1.C1CNCC[N-]1.[Cl][Pt+2]([Cl])([Cl])[Cl] the T/C (dose: 3.12 mg/kg/injection, schedule: Q04DX003 (ip), vehicle: saline) was 106 % of control and 115 % of control, the T/C (dose: 6.25 mg/kg/injection, schedule: Q01DX009 (ip), vehicle: saline) was 106 % of control and the T/C [1] was 100 % of control and 115 % of control. The T/C (dose: 12.5 mg/kg/injection, schedule: Q01DX009 (ip), vehicle: Klucel (hydroxypropylcellulose) (HPC)) was 108 % of control, the T/C (dose: 12.5 mg/kg/injection, schedule: Q04DX003 (ip), vehicle: saline) was 93 % of control and 98 % of control and 100 % of control and the T/C [2] was 120 % of control. For the same compound, the T/C [3] was 108 % of control.

In the case of COc1cc(C2NC(=O)C(C#N)=C(Nc3cccc(C)c3)S2)ccc1O (centres undefined), the T/C [4] is reported as 101 % of control, the T/C [5] is reported as 114 % of control and the T/C [6] is reported as 119 % of control.

CN(C)c1ccc(/C=C/c2ccncc2)cc1 was tested, and the T/C (dose: 3.13 mg/kg/injection, schedule: Q01DX009 (ip), vehicle: saline with Tween-80) was 115 % of control.

With CCN(CC)CCOC(=O)C(c1ccccc1)C1(O)CCCC(C)C1 (centres undefined) the T/C (dose: 50.0 mg/kg/injection, schedule: Q01DX005 (ip), vehicle: saline) was 98 % of control, the T/C (dose: 100.0 mg/kg/injection, schedule: Q01DX005 (ip), vehicle: saline) was 90 % of control and the T/C (dose: 200.0 mg/kg/injection, schedule: Q01DX005 (ip), vehicle: saline) was 110 % of control.

COc1cc2c(c3oc(=O)ccc13)C(=O)CC(C)(C)O2 was tested, and the T/C (dose: 50.0 mg/kg/injection, schedule: Q01DX001 (ip), vehicle: saline) was 108 % of control, the T/C (dose: 100.0 mg/kg/injection, schedule: Q01DX001 (ip), vehicle: saline) was 100 % of control and the T/C (dose: 200.0 mg/kg/injection, schedule: Q01DX001 (ip), vehicle: saline) was 104 % of control.

CCOC(=O)C(C#N)c1cccc(C)c1 (centres undefined) was tested, and the T/C (dose: 100.0 mg/kg/injection, schedule: Q04DX003 (ip), vehicle: saline with Tween-80) was 100 % of control and the T/C (dose: 200.0 mg/kg/injection, schedule: Q04DX003 (ip), vehicle: saline with Tween-80) was 100 % of control.

With CC(=O)N1C(=O)NC(=O)C1(CSCc1ccccc1)CSCc1ccccc1 the T/C [3] was 98 % of control, the T/C (dose: 50.0 mg/kg/injection, schedule: Q04DX003 (ip), vehicle: saline) was 98 % of control and the T/C [7] was 116 % of control. The T/C [8] was 107 % of control and the T/C [9] was 99 % of control.

In the case of O=C1OC(C(O)CO)C(O)=C1O (centres undefined), the T/C (dose: 0.01 mg/kg/injection, schedule: Q01DX009 (ip), vehicle: saline) is reported as 105 % of control and 109 % of control, the T/C (dose: 0.03 mg/kg/injection, schedule: Q01DX009 (ip), vehicle: saline) is reported as 91 % of control and 100 % of control and 118 % of control and the T/C (dose: 0.06 mg/kg/injection, schedule: Q01DX009 (ip), vehicle: saline) is reported as 97 % of control and 100 % of control and 113 % of control. For the same compound, the T/C (dose: 0.24 mg/kg/injection, schedule: Q01DX009 (ip), vehicle: saline) was 102 % of control, the T/C (dose: 0.25 mg/kg/injection, schedule: Q01DX009 (ip), vehicle: saline) was 90 % of control and 110 % of control and the T/C (dose: 0.5 mg/kg/injection, schedule: Q01DX009 (ip), vehicle: saline) was 95 % of control and 105 % of control. The T/C (dose: 1.0 mg/kg/injection, schedule: Q01DX001 (ip), vehicle: saline) was 100 % of control, the T/C (dose: 1.0 mg/kg/injection, schedule: Q01DX009 (ip), vehicle: saline) was 90 % of control and 95 % of control and the T/C (dose: 2.0 mg/kg/injection, schedule: Q01DX001 (ip), vehicle: saline) was 100 % of control. The T/C (dose: 2.0 mg/kg/injection, schedule: Q01DX009 (ip), vehicle: saline) was 95 % of control, the T/C (dose: 4.0 mg/kg/injection, schedule: Q01DX001 (ip), vehicle: saline) was 105 % of control and the T/C (dose: 4.0 mg/kg/injection, schedule: Q01DX009 (ip), vehicle: saline) was 90 % of control. The T/C (dose: 8.0 mg/kg/injection, schedule: Q01DX009 (ip), vehicle: saline) was 100 % of control, the T/C (dose: 16.0 mg/kg/injection, schedule: Q01DX001 (ip), vehicle: saline) was 105 % of control and the T/C (dose: 16.0 mg/kg/injection, schedule: Q01DX009 (ip), vehicle: saline) was 100 % of control. The T/C (dose: 32.0 mg/kg/injection, schedule: Q01DX001 (ip), vehicle: saline) was 100 % of control, the T/C (dose: 32.0 mg/kg/injection, schedule: Q01DX009 (ip), vehicle: saline) was 90 % of control and the T/C (dose: 64.0 mg/kg/injection, schedule: Q01DX001 (ip), vehicle: saline) was 95 % of control. The T/C (dose: 100.0 mg/kg/injection, schedule: Q01DX009 (ip), vehicle: saline) was 100 % of control, the T/C [7] was 95 % of control and the T/C (dose: 200.0 mg/kg/injection, schedule: Q01DX009 (ip), vehicle: saline) was 105 % of control. For the same compound, the T/C [8] was 95 % of control and the T/C [9] was 95 % of control.

O=C1NC(=O)C2(CCc3ccccc3C2)N1 (centres undefined) was tested, and the T/C (dose: 25.0 mg/kg/injection, schedule: Q01DX009 (ip), vehicle: saline with Tween-80) was 97 % of control, the T/C [4] was 99 % of control and 107 % of control and the T/C [5] was 96 % of control and 104 % of control. The T/C [6] was 96 % of control and 97 % of control and the T/C (dose: 400.0 mg/kg/injection, schedule: Q01DX009 (ip), vehicle: saline with Tween-80) was 92 % of control.

In the case of C=C1C(=O)OC2C=C(C)C3C(O)CC(C)(O)C3CC12 (centres undefined), the T/C [10] is reported as 114 % of control and the T/C [11] is reported as 102 % of control.

With O=NN(CCCl)C(=O)Nc1cccc(O)c1 the T/C (dose: 22.0 mg/kg/injection, schedule: Q04DX003 (ip), vehicle: Klucel (hydroxypropylcellulose) (HPC)) was 190 % of control, the T/C [2] was 215 % of control and the T/C (dose: 33.0 mg/kg/injection, schedule: Q04DX003 (ip), vehicle: Klucel (hydroxypropylcellulose) (HPC)) was 186 % of control. For the same compound, the T/C (dose: 35.0 mg/kg/injection, schedule: Q01DX009 (ip), vehicle: Klucel (hydroxypropylcellulose) (HPC)) was 100 % of control, the T/C (dose: 50.0 mg/kg/injection, schedule: Q01DX009 (ip), vehicle: Klucel (hydroxypropylcellulose) (HPC)) was 88 % of control and 215 % of control and the T/C (dose: 50.0 mg/kg/injection, schedule: Q04DX003 (ip), vehicle: Klucel (hydroxypropylcellulose) (HPC)) was 186 % of control. For the same compound, the T/C (dose: 66.0 mg/kg/injection, schedule: Q04DX003 (ip), vehicle: saline) was 222 % of control, the T/C (dose: 75.0 mg/kg/injection, schedule: Q01DX009 (ip), vehicle: Klucel (hydroxypropylcellulose) (HPC)) was 158 % of control and the T/C [10] was 105 % of control. For the same compound, the T/C [12] was 222 % of control and the T/C [7] was 272 % of control.

In the case of Cc1c2c(cc3c1[nH]c1ccccc13)C(c1ccc(Cl)cc1)=NCC2, the T/C [10] is reported as 86 % of control.

In the case of NC(=O)C1(C(N)=O)CCC1, the T/C [10] is reported as 100 % of control, the T/C [12] is reported as 100 % of control and the T/C [11] is reported as 110 % of control. The T/C (dose: 200.0 mg/kg/injection, schedule: Q04DX003 (ip), vehicle: Klucel (hydroxypropylcellulose) (HPC)) was 100 % of control, the T/C (dose: 400.0 mg/kg/injection, schedule: Q01DX009 (ip), vehicle: Klucel (hydroxypropylcellulose) (HPC)) was 100 % of control and the T/C (dose: 400.0 mg/kg/injection, schedule: Q04DX003 (ip), vehicle: Klucel (hydroxypropylcellulose) (HPC)) was 100 % of control.

With O=C(/C=C/c1cccc([N+](=O)[O-])c1)NCCBr the T/C [7] was 90 % of control, the T/C [8] was 100 % of control and the T/C [9] was 100 % of control.

With CC(=O)NC(Cc1ccc(N(CCCl)CCCl)cc1)C(=O)O (centres undefined) the T/C (dose: 1.56 mg/kg/injection, schedule: Q01DX009 (ip), vehicle: water) was 110 % of control, the T/C (dose: 3.12 mg/kg/injection, schedule: Q01DX009 (ip), vehicle: water) was 123 % of control and the T/C (dose: 6.25 mg/kg/injection, schedule: Q01DX009 (ip), vehicle: water) was 118 % of control. For the same compound, the T/C (dose: 12.5 mg/kg/injection, schedule: Q04DX003 (ip), vehicle: water) was 172 % of control, the T/C (dose: 25.0 mg/kg/injection, schedule: Q01DX009 (ip), vehicle: water) was 203 % of control and the T/C (dose: 25.0 mg/kg/injection, schedule: Q04DX003 (ip), vehicle: water) was 164 % of control and 200 % of control. The T/C (dose: 50.0 mg/kg/injection, schedule: Q01DX009 (ip), vehicle: water) was 248 % of control, the T/C (dose: 50.0 mg/kg/injection, schedule: Q04DX003 (ip), vehicle: water) was 245 % of control and 200 % of control and the T/C (dose: 100.0 mg/kg/injection, schedule: Q04DX003 (ip), vehicle: water) was 194 % of control.

CC1(C)O[Se](=O)OC1(C)C was tested, and the T/C [1] was 100 % of control.

In the case of COc1cc(CC#N)ccc1C, the T/C [2] is reported as 92 % of control.

With CCOC(=O)C(Cc1ccc(N(CCCl)CCCl)cc1)NC(=O)C(CC(C)C)NC(C)=O (centres undefined) the T/C (dose: 5.0 mg/kg/injection, schedule: Q04DX003 (ip), vehicle: water) was 114 % of control, the T/C (dose: 10.0 mg/kg/injection, schedule: Q04DX003 (ip), vehicle: water) was 114 % of control and the T/C (dose: 40.0 mg/kg/injection, schedule: Q04DX003 (ip), vehicle: water) was 121 % of control.

From PubChem BioAssay AID328 (DTP/NCI, 2004)
